For assay [1], the system named is P388 murine leukemia cell line. Briefly: Identification of cytotoxic agents: P388 cell viability (ATP-Lite). The assay is classed as cell-based. To be noted: Mus musculus; P388 cells, 72 hours, intracellular ATP (ATP-Lite), concentration required to inhibit growth by 50%. The protocol:
A P388 murine leukemia cell line was obtained from NCI, Frederick, Md. P388 cells were cultured in RPMI-1640 supplemented with 10% fetal bovine serum, 2 mM Glutamax, 1 mM sodium pyruvate, 0.1 mM non-essential amino acids and 10 mM HEPES. Cells were grown at 37° C. in a humidified 5% CO2 atmosphere. Exponentially growing P388 cells were plated at 5,000 cells/well in a 96-well flat-bottomed microtiter plate (Corning, Costar #3595). […] Cellular viability was determined 72 hours later by measuring intracellular ATP with ATP-Lite assay system. The effect of compounds on cell viability was calculated by comparing the ATP levels of cells exposed to test compound with those of cells exposed to DMSO. A semi-log plot of relative ATP levels versus compound concentration was used to calculate the compound concentration required to inhibit growth by 50% (IC50). Data was analyzed by Prism software (GraphPad; San Diego, Calif.) by fitting it to a sigmoidal dose response curve.

For assay [2], the system named is P388/ADR cell lines (overexpress multidrug resistance pump MDR-1). Briefly: Multidrug resistant cell assay: P388/ADR cell viability (ATP-lite). It counts as cell-based. The note with it: Mus musculus, P388/ADR cells overexpressing MDR-1 (Pgp-1), 72 hours. The text has this:
Cytotoxicity of compounds in multidrug resistant cells can be determined by administering compounds to cell lines that overexpress the multidrug resistance pump MDR-1 and determining the viability of the cell lines. P388/ADR cell lines are known to overexpress the multidrug resistance pump MDR-1 (also known as P-glycoprotein-1; Pgp-1).
P388/ADR cell lines are obtained from American Type Culture Collection (Manassas, Va.) and maintained in RPMI-1640 media supplemented with 10% FCS, 10 units/ml penicillin and streptomycin, 2 mM Glutamax and 1 mM sodium pyruvate (Invitrogen Corporation, Carlsbad, Calif.). For compound testing, cells are plated in 96 well dishes at a concentration of 1.5×10^4 cells/well. Cells are allowed to adhere to the plate overnight and then incubated with compounds at final concentrations ranging from 0.13 nM to 10 uM for 72 hours. Cell viability is then assessed using the ATP-lite reagent (Perkin Elmer, Foster City, Calif.). Plates are read on a Wallac Topcount luminescence reader (Perkin Elmer, Foster City, Calif.) and the results graphed in Prism software (Graphpad Software, Inc., San Diego, Calif.). Non-linear regression with variable slope analysis is performed to obtain IC50 concentration values.

Molecules are shown by their SMILES.

Consider `COc1ccc(N(C)c2cc(C)nc(N(C)C)n2)cc1` [Example 4, N^4-(4-Methoxyphenyl)-N^2,N^2,N^4,6-tetramethylpyrimidine-2,4-diamine], for which the IC50 in assay [1] amounted to 1060 nM; in assay [2], 1100 nM.
Regarding `COc1ccc(N(C)c2cc(C)nc(C#N)n2)cc1` [Example 7, 4-[(4-Methoxyphenyl)(methyl)amino]-6-methylpyrimidine-2-carbonitrile], the IC50 worked out at 2500 nM in assay [1] and 3900 nM in assay [2].
The matching figures for `COc1ccc(N(C)c2cc(C)nc(C)n2)cc1` [Example 11, (2,6-dimethyl-pyrimidin-4-yl)-(4-methoxyphenyl)-methylamine]: 310 nM and 400 nM.
Take `CCOC(=O)c1cnc(SC)nc1N(C)c1ccc(OC)cc1` [Example 3, Ethyl 4-[(4-methoxyphenyl)(methyl)amino]-2-(methylthio)pyrimidine-5-carboxylate]: the IC50 in assay [1] was 54 nM; in assay [2], 78 nM.
The matching figures for `COc1ccc(N(C)c2ccnc(N(C)C)n2)cc1` [Example 5, N^4-(4-Methoxyphenyl)-N^2,N^2,N^4-trimethylpyrimidine-2,4-diamine]: 7900 nM and 6200 nM.
`COC(=O)c1cc(N(C)c2ccc(OC)cc2)nc(Cl)n1` [Example 2, Methyl 2-chloro-6-[(4-methoxyphenyl)(methyl)amino]pyrimidine-4-carboxylate] returned a half-maximal inhibitory concentration (IC50) in assay [1] of 9000 nM. That is a single-digit micromolar value.
As for `COc1ccc(N(C)c2ccnc(Cl)n2)cc1` [Example 1, (2-Chloro-pyrimidin-4-yl)-(4-methoxyphenyl)-methyl amine], the values for the half-maximal inhibitory concentration (IC50) in assay [1] and in assay [2] were 280 nM and 480 nM, respectively.
As to `COc1ccc(N(C)c2cc(Cl)nc(N)n2)cc1` [Example 8, 6-Chloro-N^4-(4-methoxyphenyl)-N^4-methylpyrimidine-2,4-diamine], the IC50 in assay [1] came out at 1900 nM; in assay [2] it was 2400 nM.
In the case of `COc1ccc(S(=O)(=O)Nc2cnc(C)nc2N(C)c2ccc(O)cc2)cc1` [Example 13, N-{4-[(4-hydroxyphenyl)-methylamino]-2-methyl-pyrimidin-5-yl)-4-methyoxy-benzenesulfonamide], the IC50 is 1400 nM in assay [1] and 7400 nM in assay [2].
On the same counts, the results for `COc1ccc(N(C)c2nc(C)ncc2NS(=O)(=O)c2ccc(OC)cc2)cc1` [Example 12, 4-Methoxy-N-{4-[(4-methoxyphenyl)-methylamino]-2-methyl-pyrimidin-5-yl)-benzenesulfonamide] are 57 nM and 62 nM.
For the molecule `COc1ccc(N(C)c2ccnc(CN)n2)cc1` [Example 9, 2-(Aminomethyl)-N-(4-methoxyphenyl)-N-methylpyrimidin-4-amine], the IC50 in assay [1] worked out at 1900 nM; in assay [2], 3100 nM.
On to `COc1ccc(N(C)c2ccnc(C#N)n2)cc1` [Example 6, 4-[(4-Methoxyphenyl)(methyl)amino]pyrimidine-2-carbonitrile], for which the IC50 in assay [1] amounted to 6800 nM.
As for `COc1ccc(N(C)c2cc(-c3ccccc3)nc(C)n2)cc1` [Example 10], the IC50 came out at 1600 nM in assay [1] and 800 nM in assay [2].

The values are drawn from patent US20090280133A1, “PHARMACEUTICAL COMPOUNDS AS INHIBITORS OF CELL PROLIFERATION AND THE USE THEREOF” (Myriad Genetics, Incorporated, priority 2006, published 2009).
